Test results from article PMC10517971, “An inverse agonist of orphan receptor GPR61 acts by a G protein-competitive allosteric mechanism” (Nature Communications, 2023).
Several values for one entry are separate records, joined by “and”; a condition that tells them apart may be missing. Identical values can stand only once. Like-named read-outs stand apart in the source and are kept apart here.

Assays:
human GPR61 = target: T1, human GPR61 (Homo sapiens, UniProt Q9BZJ8); assay: Functional cAMP assay (HTRF), transiently transfected CHO-K1 cells, wild-type GPR61 (untagged and HiBit-tagged); type: cell-based; design: key to cAMP response (Figure 3e source data): nM cAMP per well, from standard curve
T1 construct: expressed in transfected cells; host or cells: CHO-K1, transient (Fugene6)
Source text: (§1) The human GPR61 (reference sequence NM_031936.4) cDNA was synthesized and subcloned into pcDNA5/FRT/TO (Thermo Fisher, Pittsburgh, PA). The pcDNA5/FRT/TO/ human GPR61 plasmid was then transfected into the Flp-In™-CHO Cell Line (Thermo Fisher, Pittsburgh, PA) and a doxycycline-inducible clonal cell line was selected (CHO TREx hGPR61 WT). Sequences encoding untagged and HiBit/hemagglutinin (HA)-tagged versions of the wild-type human GPR61 were synthesized and cloned into pcDNA3.1. The HiBit ([…]) and HA ([…]) tags were sequentially included after the N-terminal initiator methionine. Four single amino acid substitutions (N137A, R140A, V288A, N345A) were then introduced in the untagged and tagged human GPR61 constructs using site-specific mutagenesis. The nucleotide sequences of all receptor constructs were confirmed by automated DNA sequencing.
Parental CHO-K1 cells were maintained at 37 °C in a humidified environment (5% CO2) and grown in Dulbecco’s Modified Eagle Medium (DMEM) F-12 media (Gibco, 11320033) supplemented with 10% FBS, 1% Glutamax (Gibco, 35050061) and 100units/ml penicillin and streptomycin (Gibco, 15140122. Cells were dissociated using a cell dissociation solution (Gibco, 13151-014), counted, and resuspended in complete culture media without antibiotics. Cells were then transiently transfected using Fugene6 (Promega) in a 384-well plate format (Corning, 3570). For each well, 7500 cells were transfected with 5 ng of receptor plasmid, 20 ng of carrier DNA (Promega, PAE4881) and 0.075 μl Fugene6 in a final volume of 25 μl. Fugene6 and DNA were separately diluted in Optimem media (Gibco, 31985070) (1.25 μl final volume each). Fugene6 and DNA solutions were then combined and incubated for 15 min at room temperature. The cell containing solution (22.5 μl) was then added and transfection reactions were mixed and transferred to the assay plate. Following 24 h incubation at 37 °C, wells were rinsed once and 25 μl of HiBit assay buffer (Phenol-red free DMEM F-12 media containing 2% FBS) was added per well. Surface and total receptor expression was measured separately by adding 25 μl per well of the extracellular (Promega, PRN2421) and lytic (Promega, PRN3040) assay solutions, respectively. Plates were incubated for 10 min at room temperature on a shaker and luciferase activity was measured using an EnVision plate reader (Perkin Elmer, Chicago, IL). Expression was normalized as percent of the wild-type receptor signal. Statistical comparisons of expression levels observed with WT versus GPR61 mutants were made by one-way analysis of variance with Dunnett’s post hoc test.
A homogeneous Time-Resolved Fluorescence (HTRF) assay (Perkin Elmer, Dynamic2 kit #) was used to assess receptor basal and inverse agonist activity at human GPR61, GPR62, and GPR101. For routine inverse agonist screening frozen CHO TREx human GPR61, GPR62 and GPR101 cells were used. Cells were thawed, resuspended in complete assay media (DMEM F-12, 10% HI FBS, 100 μg/mL Normocin, 700 μg/mL Hygromycin B and 15 μg/mL Blasticidin) containing 1ug/ml doxycycline, plated in white 384 well plates (Corning, 3570) at a density of 750 cells/well (25 μl/ well) and cultured at 37 °C in an incubator overnight. For studies assessing basal and inverse agonist activity at human GPR61 mutants, CHO-K1 cells were transiently transfected using Fugene6, plated in white 384 well plates (7500 cells/well) and grown overnight at 37 °C, as described for receptor expression studies. […]

[1] = target: T2, HiBit-tagged wild-type GPR61 (Homo sapiens, UniProt Q9BZJ8); assay: Receptor expression studies (HiBit surface and total expression), CHO-K1 cells; type: cell-based; settings: effect of compound, Fig. 2b, c
T2 construct: expressed in transfected cells; host or cells: CHO-K1, transient (Fugene6)
Source text: as §1, with “Four single amino acid substitutions (N137A, R140A, V288A, N345A) were then introduced in the untagged and tagged human GPR61 constructs using site-specific mutagenesis. The nucleotide sequences of all receptor constructs were confirmed by automated DNA sequencing.” left out
Parental CHO-K1 cells were maintained at 37 °C in a humidified environment (5% CO2) and grown in Dulbecco’s Modified Eagle Medium (DMEM) F-12 media (Gibco, 11320033) supplemented with 10% FBS, 1% Glutamax (Gibco, 35050061) and 100units/ml penicillin and streptomycin (Gibco, 15140122. Cells were dissociated using a cell dissociation solution (Gibco, 13151-014), counted, and resuspended in complete culture media without antibiotics. Cells were then transiently transfected using Fugene6 (Promega) in a 384-well plate format (Corning, 3570). For each well, 7500 cells were transfected with 5 ng of receptor plasmid, 20 ng of carrier DNA (Promega, PAE4881) and 0.075 μl Fugene6 in a final volume of 25 μl. […]

T1 sequence (Q9BZJ8 whole entry): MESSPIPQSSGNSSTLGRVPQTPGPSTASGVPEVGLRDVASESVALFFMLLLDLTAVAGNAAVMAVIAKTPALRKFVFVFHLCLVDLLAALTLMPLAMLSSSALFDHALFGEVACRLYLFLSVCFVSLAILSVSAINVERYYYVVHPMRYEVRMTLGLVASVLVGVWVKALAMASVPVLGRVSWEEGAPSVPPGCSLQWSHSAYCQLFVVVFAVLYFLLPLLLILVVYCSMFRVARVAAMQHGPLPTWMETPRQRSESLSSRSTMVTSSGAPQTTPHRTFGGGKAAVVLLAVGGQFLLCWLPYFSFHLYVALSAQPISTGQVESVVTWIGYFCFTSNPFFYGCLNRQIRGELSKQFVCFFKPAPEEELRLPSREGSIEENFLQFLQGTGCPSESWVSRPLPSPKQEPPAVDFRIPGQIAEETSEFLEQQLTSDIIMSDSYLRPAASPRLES
T2 sequence (Q9BZJ8 whole entry): as above

With `CCOc1cc(C)nc(N(CCOC)S(=O)(=O)c2ccc(NCc3c(F)cncc3F)nc2OC)n1` [Compound 1] as the molecule, how does the IC50 (human GPR61; Fig. 2d, HiBit-tagged WT, read-out: IC50, cAMP assay, Hibit-tagged GPR61) read?
Its IC50 is 10 nM.

And the IC50 (human GPR61; Fig. 2d, untagged WT, read-out: IC50, cAMP assay, Untagged GPR61)?
Its IC50 is 11 nM.

What about the “cAMP response (Figure 3e source data)” value (human GPR61; HiBit WT, concentration -7.5) of the same molecule?
The value was 1.38 and 1.77 and 1.31 and 1.26 and 1.43 and 2.44.

And the “cAMP response (Figure 3e source data)” value (human GPR61; HiBit WT, concentration -8)?
The value was 2.14 and 2.36 and 1.86 and 2.11 and 3.43.

And the “cAMP response (Figure 3e source data)” value (human GPR61; HiBit WT, concentration -10)?
The value was 3.60 and 4.23 and 3.00 and 3.19 and 3.38 and 5.40.

What about the “cAMP response (Figure 3e source data)” value (human GPR61; Untagged WT, concentration -8.5) of the same molecule?
Its value is 3.48 and 4.28 and 2.15 and 2.16 and 4.06 and 4.02.

And the “cAMP response (Figure 3e source data)” value (human GPR61; Untagged WT, concentration -9)?
The value was 4.53 and 5.41 and 3.02 and 3.13 and 5.81 and 5.80.

What about the IC50 (human GPR61; wild-type GPR61, untagged and HiBit-tagged, read-out: IC50 in the functional cAMP assay) of the same molecule?
The IC50 was 10 to 11 nM.

What about the “cell surface expression of HiBit-tagged wild-type GPR61” value [1] of the same molecule?
The value was “increased”.
